Reference: US20240166646A1, “1H-PYRROLO[2,3-B]PYRIDINE DERIVATIVES AS BCL-2 INHIBITORS FOR THE TREATMENT OF NEOPLASTIC AND AUTOIMMUNE DISEASES” (Newave Pharmaceutical Inc., priority 2020, published 2024)
pIC50: −log10 of the molar value. Counter-ions that a name gives are not always drawn.

Columns and labels:
[1] = tested on: BCL-2-dependent acute lymphoblastic leukemia (ALL) cell line RS4; 11 with G101V mutation; experiment: In vitro anti-proliferation assay (ATPlite) in RS4; 11 with G101V mutation; type: cell-based; details: about 72 hours incubation, medium with 5% FBS or 10% normal human serum, ATPlite luminescence
Protocol: Cell antiproliferation was assayed by PerkinElmer ATPlite™ Luminescence Assay System. Briefly, the various test cancer cell lines were plated at a density of about 1×10^4 cells per well in Costar 96-well plates, and were incubated with different concentrations of compounds for about 72 hours in medium supplemented with 5% FBS or 10% normal human serum (NHS). One lyophilized substrate solution vial was then reconstituted by adding 5 mL of substrate buffer solution, and was agitated gently until the solution was homogeneous. About 50 μL of mammalian cell lysis solution was added to 100 μL of cell suspension per well of a microplate, and the plate was shaken for about five minutes in an orbital shaker at ˜700 rpm. This procedure was used to lyse the cells and to stabilize the ATP. Next, 50 μL substrate solution was added to the wells and microplate was shaken for five minutes in an orbital shaker at ˜700 rpm. Finally, the luminescence was measured by a PerkinElmer TopCount® Microplate Scintillation Counter. Such assays, carried out with a range of doses of test compounds, allowed the determination of the cellular anti-antiproliferative IC50 of the compounds of the present invention.

Bcl-2 = Bcl-2 (Homo sapiens (Human), UniProt P10415); experiment: Bcl-2 competition binding (fluorescence polarization) assay; details: fluorescein labeled BH3 peptide 15 nM, Bcl-2 protein 30 nM, 3 hours of incubation at room temperature
In short: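 Fluorescence polarization competition of 15 nM labeled 23-mer BH3 peptide with 30 nM purified Bcl-2, in 20 mM Hepes pH 7.0, 50 mM KCl, 5 mM MgCl2, 20 mM Na2MoO4, 0.1 mg/ml bovine gamma globulin, 0.01% NP40. Compounds 20 μM to 2 nM final; mP read after 3 h at room temperature, background-subtracted. IC50 from sigmoidal dose-response fit.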

Chain of Bcl-2 (P10415 whole entry): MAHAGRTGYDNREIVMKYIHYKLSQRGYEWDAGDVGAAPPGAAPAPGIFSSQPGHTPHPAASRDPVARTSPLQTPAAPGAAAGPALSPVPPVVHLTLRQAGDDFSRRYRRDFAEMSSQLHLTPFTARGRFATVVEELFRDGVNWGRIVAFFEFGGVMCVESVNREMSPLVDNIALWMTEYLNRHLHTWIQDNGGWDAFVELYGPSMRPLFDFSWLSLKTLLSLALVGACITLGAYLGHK

Structure (SMILES) | pIC50 [1] | pIC50 (Bcl-2) | pIC50 ([1]; RS4-11) | pIC50 ([1]; hydrochloride) | pIC50 (Bcl-2; hydrochloride)
CC(C)c1ccccc1[C@@H]1CCCN1C1CC2(CCN(c3ccc(C(=O)NS(=O)(=O)c4ccc(NC[C@H]5CC[C@](C)(O)CC5)c([N+](=O)[O-])c4)c(N4c5cc6cc[nH]c6nc5O[C@@H]5COC[C@H]54)c3)CC2)C1 [Example 3-0A] | 8.25 | 9.80 | – | – | –
CC(C)(C#N)c1ccccc1[C@@H]1CCCN1C1CC2(CCN(c3ccc(C(=O)NS(=O)(=O)c4ccc(NCC5CCOCC5)c([N+](=O)[O-])c4)c(N4c5cc6cc[nH]c6nc5O[C@@H]5COC[C@H]54)c3)CC2)C1 [Example 19, 4-{2-[(2S)-2-[2-(1-cyano-1-methylethyl)phenyl]pyrrolidin-1-yl]-7-azaspiro[3.5]nonan-7-yl}-2-[(11R,15S)-13,16-dioxa-2,4,10-triazatetracyclo[7.7.0.0^{3,7}.0^{11,15}]hexadeca-1(9),2,5,7-tetraen-10-yl]-N-{3-nitro-4-[(oxan-4-ylmethyl)amino]benzenesulfonyl}benzamide hydrochloride] | 7.14 | 10.00 | – | – | –
CC(C)Oc1ccccc1[C@@H]1CCCN1C1CC2(CCN(c3ccc(C(=O)NS(=O)(=O)c4ccc(NCC5CCOCC5)c([N+](=O)[O-])c4)c(N4c5cc6cc[nH]c6nc5O[C@H]5COC[C@H]54)c3)CC2)C1 [Example 54, 4-(2-((S)-2-(2-isopropoxyphenyl)pyrrolidin-1-yl)-7-azaspiro[3.5]nonan-7-yl)-N-((3-nitro-4-(((tetrahydro-2H-pyran-4-yl)methyl)amino)phenyl)sulfonyl)-2-((5aR,8aR)-5a,6,8,8a-tetrahydrofuro[3,4-b]pyrrolo[3′,2′:5,6]pyrido[3,2-e][1,4]oxazin-5(1H)-yl)benzamide] | – | 9.23 | < 6.00 | – | –
CC(C)Oc1ccccc1[C@@H]1CCCN1C1CC2(CCN(c3ccc(C(=O)NS(=O)(=O)c4ccc(NCC5CCOCC5)c([N+](=O)[O-])c4)c(N4c5cc6cc[nH]c6nc5O[C@H]5COCC[C@@H]54)c3)CC2)C1 [Example 67, 2-[(3R,8S)-2,5-dioxa-9,15,17-triazatetracyclo[8.7.0.0^{3,8}.0^{12,16}]heptadeca-1(10),11,13,16-tetraen-9-yl]-4-{2-[(2S)-2-(2-isopropoxyphenyl)pyrrolidin-1-yl]-7-azaspiro[3.5]nonan-7-yl}-N-{3-nitro-4-[(oxan-4-ylmethyl)amino]benzenesulfonyl}benzamide hydrochloride] | – | – | – | 7.30 | 9.64
Cc1ccccc1[C@H]1COCCN1C1CC2(CCN(c3ccc(C(=O)NS(=O)(=O)c4ccc(NCC5CCOCC5)c([N+](=O)[O-])c4)c(N4c5cc6cc[nH]c6nc5O[C@@H]5COC[C@H]54)c3)CC2)C1 [Example 51, N-((3-nitro-4-(((tetrahydro-2H-pyran-4-yl)methyl)amino)phenyl)sulfonyl)-2-((5aR,8aS)-5a,6,8,8a-tetrahydrofuro[3,4-b]pyrrolo[3′,2′:5,6]pyrido[3,2-e][1,4]oxazin-5(1H)-yl)-4-(2-((S)-3-(o-tolyl)morpholino)-7-azaspiro[3.5]nonan-7-yl)benzamide] | – | 8.97 | 6.44 | – | –
CC(C)Oc1ccccc1[C@@H]1CCCN1C1CC2(CCN(c3ccc(C(=O)NS(=O)(=O)c4ccc(NCC5CCOCC5)c([N+](=O)[O-])c4)c(N4c5cc6cc[nH]c6nc5O[C@@H]5COC[C@@H]54)c3)CC2)C1 [Example 55, 4-(2-((S)-2-(2-isopropoxyphenyl)pyrrolidin-1-yl)-7-azaspiro[3.5]nonan-7-yl)-N-((3-nitro-4-(((tetrahydro-2H-pyran-4-yl)methyl)amino)phenyl)sulfonyl)-2-((5aS,8aS)-5a,6,8,8a-tetrahydrofuro[3,4-b]pyrrolo[3′,2′:5,6]pyrido[3,2-e][1,4]oxazin-5(1H)-yl)benzamide] | – | 9.22 | 6.41 | – | –
Cc1ccccc1[C@@H]1COCCCN1C1CC2(CCN(c3ccc(C(=O)NS(=O)(=O)c4ccc(NCC5CCOCC5)c([N+](=O)[O-])c4)c(N4c5cc6cc[nH]c6nc5O[C@@H]5COC[C@H]54)c3)CC2)C1 [Example 65, N-((3-nitro-4-(((tetrahydro-2H-pyran-4-yl)methyl)amino)phenyl)sulfonyl)-2-((5aR,8aS)-5a,6,8,8a-tetrahydrofuro[3,4-b]pyrrolo[3′,2′:5,6]pyrido[3,2-e][1,4]oxazin-5(1H)-yl)-4-(2-((R)-3-(o-tolyl)-1,4-oxazepan-4-yl)-7-azaspiro[3.5]nonan-7-yl)benzamide] | – | 9.37 | < 6.00 | – | –
CC(C)Oc1ccccc1[C@@H]1CCCN1C1CC2(CCN(c3ccc(C(=O)NS(=O)(=O)c4ccc(NCC5CCOCC5)c([N+](=O)[O-])c4)c(N4c5cc6cc[nH]c6nc5O[C@@H]5CCOC[C@H]54)c3)CC2)C1 [Example 59, 4-(2-((S)-2-(2-isopropoxyphenyl)pyrrolidin-1-yl)-7-azaspiro[3.5]nonan-7-yl)-N-((3-nitro-4-(((tetrahydro-2H-pyran-4-yl)methyl)amino)phenyl)sulfonyl)-2-((5aR,9aR)-5a,8,9,9a-tetrahydro-6H-pyrano[4,3-b]pyrrolo[3′,2′:5,6]pyrido[3,2-e][1,4]oxazin-5(1H)-yl)benzamide] | – | 10.00 | 6.91 | – | –
Cc1ccccc1[C@H]1COCCCN1C1CC2(CCN(c3ccc(C(=O)NS(=O)(=O)c4ccc(NCC5CCOCC5)c([N+](=O)[O-])c4)c(N4c5cc6cc[nH]c6nc5O[C@@H]5COC[C@H]54)c3)CC2)C1 [Example 66, 2-[(11R,15S)-13,16-dioxa-2,4,10-triazatetracyclo[7.7.0.0^{3,7}.0^{11,15}]hexadeca-1(9),2,5,7-tetraen-10-yl]-4-{2-[(3S)-3-(2-methylphenyl)-1,4-oxazepan-4-yl]-7-azaspiro[3.5]nonan-7-yl}-N-{3-nitro-4-[(oxan-4-ylmethyl)amino]benzenesulfonyl}benzamide] | 6.53 | 9.25 | – | – | –
CC(C)c1ccccc1[C@@H]1CCCN1C1CC2(CCN(c3ccc(C(=O)NS(=O)(=O)c4ccc(NCC5CCOCC5)c([N+](=O)[O-])c4)c(N4c5cc6cc[nH]c6nc5O[C@H]5COC[C@@H]54)c3)CC2)C1 [Example 2, 2-[(11S,15R)-13,16-dioxa-2,4,10-triazatetracyclo[7.7.0.0^[3,7].0^[11,15]]hexadeca-1(9),2,5,7-tetraen-10-yl]-4-[2-[(2S)-2-(2-isopropylphenyl)pyrrolidin-1-yl]-7-azaspiro[3.5]nonan-7-yl]-N-[3-nitro-4-[(oxan-4-ylmethyl)amino]benzenesulfonyl]benzamide] | 7.18 | 9.66 | – | – | –
CC(C)Oc1ccccc1[C@@H]1CCCN1C1CC2(CCN(c3ccc(C(=O)NS(=O)(=O)c4ccc(NCC5(F)CCOCC5)c([N+](=O)[O-])c4)c(N4c5cc6cc[nH]c6nc5O[C@@H]5COC[C@H]54)c3)CC2)C1 [Example 42, N-((4-(((4-fluorotetrahydro-2H-pyran-4-yl)methyl)amino)-3-nitrophenyl)sulfonyl)-4-(2-((S)-2-(2-isopropoxyphenyl)pyrrolidin-1-yl)-7-azaspiro[3.5]nonan-7-yl)-2-((5aR,8aS)-5a,6,8,8a-tetrahydrofuro[3,4-b]pyrrolo[3′,2′:5,6]pyrido[3,2-e][1,4]oxazin-5(1H)-yl)benzamide] | – | 9.66 | 7.53 | – | –
COC1(C)CCC(CNc2ccc(S(=O)(=O)NC(=O)c3ccc(N4CCC5(CC4)CC(N4CCC[C@H]4c4ccccc4C(C)C)C5)cc3N3c4cc5cc[nH]c5nc4O[C@@H]4COC[C@H]43)cc2[N+](=O)[O-])CC1 (stereo partly drawn) [Example 36, 4-(2-((S)-2-(2-isopropylphenyl)pyrrolidin-1-yl)-7-azaspiro[3.5]nonan-7-yl)-N-((4-((((1r,4r)-4-methoxy-4-methylcyclohexyl)methyl)amino)-3-nitrophenyl)sulfonyl)-2-((5aR,8aS)-5a,6,8,8a-tetrahydrofuro[3,4-b]pyrrolo[3′,2′:5,6]pyrido[3,2-e][1,4]oxazin-5(1H)-yl)benzamide hydrochloride] | 7.25 | 9.51 | – | – | –
C=Cc1ccccc1[C@@H]1CCCN1C1CC2(CCN(c3ccc(C(=O)NS(=O)(=O)c4ccc(NCC5CCOCC5)c([N+](=O)[O-])c4)c(N4c5cc6cc[nH]c6nc5O[C@@H]5COC[C@H]54)c3)CC2)C1 [Example 6, 2-[(11R,15S)-13,16-dioxa-2,4,10-triazatetracyclo[7.7.0.0^{3,7}.0^{11,15}]hexadeca-1(9),2,5,7-tetraen-10-yl]-4-{2-[(2S)-2-(2-ethenylphenyl)pyrrolidin-1-yl]-7-azaspiro[3.5]nonan-7-yl}-N-{3-nitro-4-[(oxan-4-ylmethyl)amino]benzenesulfonyl}benzamide hydrochloride] | 7.54 | 10.08 | – | – | –
